Assay results from US6774141B1, “Calanolide and related antiviral compounds, compositions, and uses thereof” (The United States of America as represented by the …, priority 1992, dated 2004).
Like-named read-outs stand apart in the source and are kept apart here.

What was measured:
HIV-1 [1] = assay: microbe, parasite or virus in culture; details: for anti-HIV activity in the primary screening assay / inhibition of the cytopathic effects of HIV-1 upon CEM-SS cells: result in words; for antiviral potency relative to calanolide A: overall of XTT and BCECF assays; for inhibition of the cytopathic effects of HIV-1 upon CEM-SS cells: battery of interrelated assays, 6 days
Source text: Pure compounds were initially evaluated for antiviral activity using an XTT-tetrazolium anti-HIV primary screening assay described previously (Boyd, M. R., in AIDS Etiology, Diagnosis, Treatment and Prevention (DeVita V. T., Jr., Hellman S., Rosenberg S. A., eds.), pp 305-319 (Philadelphia: Lippincott, 1988); Gustafson, K. R., et al., J. Med. Chem., 35, 1978-1986 (1992); Weislow, O. S., et al., J. Natl. Cancer Inst., 81, 577-586 (1989); Gulakowski, R. J., et al., J. Virol. Methods, 33, 87-100 (1991)). The CEM-SS human lymphocytic target cell line used in all assays was maintained in RPMI 1640 medium (Gibco, Grand Island, N.Y.), without phenol red, and was supplemented with 5% fetal bovine serum, 2 mM L-glutamine and 50 μg/ml gentamicin (complete medium). Exponentially-growing cells were pelleted and resuspended at a concentration of 2.0×10^5 cells/ml in complete medium. The Haitian variant of HIV, HTLV-IIIRF (3.54×10^6 SFU/ml), was used throughout. Frozen virus stock solutions were thawed immediately before use and resuspended in complete medium to yield […]. The appropriate amounts of the pure compounds for anti-HIV evaluations were dissolved in 100% dimethylsulfoxide (DMSO), then diluted in complete medium to the desired initial concentration (and with the final DMSO content not exceeding 1%). All serial drug dilutions, reagent additions, and plate-to-plate transfers were carried out with an automated Biomek 1000 Workstation (Beckman Instruments, Palo Alto, Calif.).
Briefly, the procedure was as follows. Uninfected CEM-SS cells were plated at a density of 1×10^4 cells in 50 μl of complete medium. Diluted HIV-1 virus was then added to appropriate wells in a volume of 50 μl to yield a multiplicity of infection of 0.6. Appropriate cell, virus and drug controls were incorporated in each experiment; the final volume in each microtiter well was 200 μl. Quadruplicate wells were used for virus-infected cells, and duplicate wells were used for uninfected cells. Plates were incubated at 37° C. in an atmosphere containing 5% CO2 for 6 days. Subsequently, aliquots of cell-free supernatant were removed from each well using the Biomek, and analyzed for reverse transcriptase activity, p24 antigen production and synthesis of infectious virions as described (Gulakowski, R. J., et al., J. Virol. Methods, 33, 87-100 (1991)). Cellular growth or viability then was estimated on the remaining contents of each well using the XTT (Weislow, O. S., et al., J. Natl. Cancer Inst., 81, 577-586 (1989)), BCECF (Rink, T. L., et al., J. Cell. Biol., 95, 189-196 (1982)) and DAPI (McCaffrey, T. A., et al., In Vitro Cell Develop. Biol., 24, 247-252 (1988)) assays as described (Gulakowski, R. J., et al., J. Virol. Methods, 33, 87-100 (1991)).

CEM-SS cells [2] = assay: XTT assay, direct cytotoxicity upon uninfected CEM-SS target cells; type: cell-based, human
Source text: (§1) Briefly, the procedure was as follows.

CEM-SS cells [3] = assay: BCECF assay, direct cytotoxicity upon uninfected CEM-SS target cells; type: cell-based, human; details: quadruplicate tests, cytotoxicity to CEM-SS, read-out: IC50 μM (± SD) BCECF
Source text: as §1

HIV-1 [4] = details: for EC50: read-out: EC50 μM (±S.D.) p24, quadruplicate tests, supernatant viral core protein
HIV-1 [5] = details: for EC50: read-out: EC50 μM (±S.D.) RT, quadruplicate tests, supernatant reverse transcriptase
HIV-1 [6] = details: for EC50: read-out: EC50 μM (±S.D.) SFU, quadruplicate tests, supernatant syncytium-forming units
HIV = details: in most patients; cited from earlier work
[7] = XTT assay, direct cytotoxicity upon uninfected CEM-SS target cells; type: cell-based, human; details: human, uninfected CEM-SS cells; FIGS. 4A-D, CEM-SS cells, 6 days
Source text: as §1

HIV-1 [8] = assay: microbe, parasite or virus in culture; details: Human immunodeficiency virus 1, CEM-SS, read-out: EC50 μM (±S.D.) p24
HIV-1 [9] = assay: microbe, parasite or virus in culture; details: Human immunodeficiency virus 1, CEM-SS, read-out: EC50 μM (±S.D.) RT
HIV-1 [10] = assay: microbe, parasite or virus in culture; details: Human immunodeficiency virus 1, CEM-SS, read-out: EC50 μM (±S.D.) SFU
[11] = read-out: EC50 μM (± SD) BCECF, quadruplicate tests, HIV-1 strain RF, CEM-SS
[12] = read-out: EC50 μM (± SD) XXT, quadruplicate tests, HIV-1 strain RF, CEM-SS
[13] = quadruplicate tests, cytotoxicity to CEM-SS, read-out: IC50 μM (± SD) XXT
[14] = primary screening assay, HIV-1 in CEM-SS cells
[15] = primary screening assay, cytotoxicity to CEM-SS cells, read-out: IC50
[16] = HIV-1-infected CEM-SS, FIG. 4D, result in words

Row | Molecule | anti-HIV activity in the primary screening assay (HIV-1 [1]; HIV-1 in CEM-SS cells) | antiviral potency relative to calanolide A (HIV-1 [1]; HIV-1 strain RF, CEM-SS) | EC50 (HIV-1 [1]; [11]) [µM] | EC50 (HIV-1 [1]; [12]) [µM] | IC50 (CEM-SS cells [2]; [13]) [µM] | IC50 (CEM-SS cells [3]) [µM] | EC50 (HIV-1 [4]) [µM] | EC50 (HIV-1 [5]) [µM] | EC50 (HIV-1 [6]) [µM] | further results
1 | CCCc1cc(=O)oc2c3c(c4c(c12)OC(C)(C)C=C4)OC(C)C(C)C3O (stereo not shown) [Compound 6] | weak but detectable |  |  |  |  |  |  |  |  | 
2 | CCCc1cc(=O)oc2c3c(c4c(c12)OC(C)(C)C=C4)O[C@@H](C)[C@H](C)[C@@H]3O [Costatolide, costatolide] |  | about ⅔ | 0.2 | 0.23 | 10 | 8 | 0.11 | 0.12 | 0.14 | 
3 | calanolide B | complete inhibition |  |  |  |  |  |  |  |  | inhibition of the cytopathic effects of HIV-1 upon CEM-SS cells (HIV-1 [1]): complete protection; EC50 (HIV-1 [1]; [14]): 0.4 µM; IC50 (CEM-SS cells [2]; [15]): 15 µM
4 | Nc1ccn([C@H]2CC[C@@H](CO)O2)c(=O)n1 [ddC, 2′,3′-dideoxycytidine] |  |  |  |  |  |  |  |  |  | virustatic range, dose (HIV): 0.005-0.25 mg/kg body weight
5 | CCCc1cc(=O)oc2c3c(c4c(c12)OC(C)(C)C=C4)O[C@H](C)[C@@H](C)[C@H]3OC [12-methoxycalanolide B] | weak but detectable |  |  |  |  |  |  |  |  | 
6 | CCCc1cc(=O)oc2c3c(c4c(c12)OC(C)(C)C=C4)O[C@H](C)[C@@H](C)[C@@H]3O [calanolide A] | complete protection |  |  |  |  |  |  |  |  | EC50 (HIV-1 [1]; Human immunodeficiency virus 1, CEM-SS, 144 h, read-out: EC50, inhibition of the cytopathic effects of HIV-1): ~0.1 µM; EC50 (HIV-1 [1]; Human immunodeficiency virus 1, CEM-SS, read-out: EC50 μM (± SD) BCECF): 0.16 µM; EC50 (HIV-1 [1]; Human immunodeficiency virus 1, CEM-SS, read-out: EC50 μM (± SD) XXT): 0.13 µM; inhibition of the cytopathic effects of HIV-1 upon CEM-SS cells (HIV-1 [1]): complete inhibition; IC50 at 6 days [7]: ~13000 nM; IC50 (CEM-SS cells [2]; Homo sapiens, quadruplicate tests, cytotoxicity to CEM-SS, read-out: IC50 μM (± SD) XXT): 14.3 µM; IC50 (CEM-SS cells [3]; Homo sapiens): 14.3 µM; production of p24 (HIV-1 [4]; [16]): strikingly inhibited; production of RT (HIV-1 [5]; [16]): strikingly inhibited; production of SFU (HIV-1 [6]; [16]): strikingly inhibited; EC50 (HIV-1 [8]): 0.07 µM; EC50 (HIV-1 [9]): 0.07 µM; EC50 (HIV-1 [10]): 0.08 µM
7 | CCCc1cc(=O)oc2c3c(c4c(c12)OC(C)(C)CC4)O[C@H](C)[C@@H](C)[C@@H]3O [DH-calanolide A, 7,8-dihydrocalanolide A] |  | about ⅔ | 0.19 | 0.23 | 12.5 | 18.7 | 0.12 | 0.13 | 0.17 | 
8 | CCCc1cc(=O)oc2c3c(c4c(c12)OC(C)(C)C=C4)O[C@H](C)[C@@H](C)[C@@H]3OC(C)=O [12-acetoxycalanolide A] | active |  |  |  |  |  |  |  |  | EC50 (HIV-1 [1]; [14]): 2.7 µM; IC50 (CEM-SS cells [2]; [15]): 13 µM
9 | CCCc1cc(=O)oc2c3c(c4c(c12)OC(C)(C)CC4)O[C@@H](C)[C@H](C)[C@@H]3O [DH-costatolide, 7,8-dihydrocostatolide] |  | about ⅓ | 0.31 | 0.3 | 18.7 | 10.3 | 0.24 | 0.25 | 0.19 | 
10 | CCCc1cc(=O)oc2c3c(c4c(c12)OC(C)(C)C=C4)O[C@H](C)[C@@H](C)[C@@H]3OC [12-methoxycalanolide A] | not detectable |  |  |  |  |  |  |  |  | 
